This passage reports IC50 results from patent US20090181963A1, “3H-[1,2,3]TRIAZOLO[4,5-D]PYRIMIDINE COMPOUNDS, THEIR USE AS mTOR KINASE AND PI3 KINASE INHIBITORS, AND THEIR [sequence]” (Wyeth, priority 2008, published 2009).

In experiment [1] the target is PI3 Kinase γ (Homo sapiens, UniProt P48736). Kind of experiment: Fluorescence polarization assay for PI3K (PI3 Kinase γ). Type of experiment: biochemical. To be noted: diC8-PI(4,5)P2 substrate, 25 μM ATP, one hour at 25° C. (In general: Fluorescence polarisation rises when a labelled molecule tumbles more slowly, as on binding a larger partner.)
Experiment [2] addresses PI3 Kinase α (Homo sapiens, UniProt P42336). Kind of experiment: Fluorescence polarization assay for PI3K (PI3 Kinase α). Type of experiment: biochemical. To be noted: diC8-PI(4,5)P2 substrate, 25 μM ATP, one hour at 25° C.

Sequence of PI3 Kinase γ (P48736 whole entry): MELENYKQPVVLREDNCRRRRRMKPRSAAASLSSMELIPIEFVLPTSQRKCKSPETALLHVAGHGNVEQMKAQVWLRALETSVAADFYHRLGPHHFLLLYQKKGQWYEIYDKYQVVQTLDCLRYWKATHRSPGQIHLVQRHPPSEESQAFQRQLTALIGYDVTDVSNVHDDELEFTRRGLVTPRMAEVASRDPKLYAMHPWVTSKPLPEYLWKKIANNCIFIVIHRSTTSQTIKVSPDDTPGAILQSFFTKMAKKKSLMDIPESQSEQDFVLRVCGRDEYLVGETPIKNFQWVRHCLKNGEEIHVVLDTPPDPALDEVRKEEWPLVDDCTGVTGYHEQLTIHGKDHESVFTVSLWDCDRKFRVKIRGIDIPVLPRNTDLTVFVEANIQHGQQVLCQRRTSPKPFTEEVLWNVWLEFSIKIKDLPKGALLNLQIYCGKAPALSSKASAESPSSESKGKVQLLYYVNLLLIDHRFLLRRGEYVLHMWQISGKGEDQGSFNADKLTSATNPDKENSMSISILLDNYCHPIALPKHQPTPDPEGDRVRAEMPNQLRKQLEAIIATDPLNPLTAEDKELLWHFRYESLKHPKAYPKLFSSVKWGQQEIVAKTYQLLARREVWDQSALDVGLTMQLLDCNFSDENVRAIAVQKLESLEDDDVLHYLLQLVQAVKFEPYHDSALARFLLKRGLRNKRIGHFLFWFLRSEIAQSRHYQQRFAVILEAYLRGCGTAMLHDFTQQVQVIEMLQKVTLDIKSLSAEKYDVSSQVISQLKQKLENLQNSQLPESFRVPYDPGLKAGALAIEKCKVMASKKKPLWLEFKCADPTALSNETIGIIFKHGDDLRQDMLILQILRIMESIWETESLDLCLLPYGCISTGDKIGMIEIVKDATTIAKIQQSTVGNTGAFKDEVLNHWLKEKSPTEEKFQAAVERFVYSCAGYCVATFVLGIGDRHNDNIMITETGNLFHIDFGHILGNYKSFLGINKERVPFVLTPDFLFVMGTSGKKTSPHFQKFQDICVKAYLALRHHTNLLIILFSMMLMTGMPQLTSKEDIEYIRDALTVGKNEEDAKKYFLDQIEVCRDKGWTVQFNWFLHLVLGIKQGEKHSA
Sequence of PI3 Kinase α (P42336 whole entry): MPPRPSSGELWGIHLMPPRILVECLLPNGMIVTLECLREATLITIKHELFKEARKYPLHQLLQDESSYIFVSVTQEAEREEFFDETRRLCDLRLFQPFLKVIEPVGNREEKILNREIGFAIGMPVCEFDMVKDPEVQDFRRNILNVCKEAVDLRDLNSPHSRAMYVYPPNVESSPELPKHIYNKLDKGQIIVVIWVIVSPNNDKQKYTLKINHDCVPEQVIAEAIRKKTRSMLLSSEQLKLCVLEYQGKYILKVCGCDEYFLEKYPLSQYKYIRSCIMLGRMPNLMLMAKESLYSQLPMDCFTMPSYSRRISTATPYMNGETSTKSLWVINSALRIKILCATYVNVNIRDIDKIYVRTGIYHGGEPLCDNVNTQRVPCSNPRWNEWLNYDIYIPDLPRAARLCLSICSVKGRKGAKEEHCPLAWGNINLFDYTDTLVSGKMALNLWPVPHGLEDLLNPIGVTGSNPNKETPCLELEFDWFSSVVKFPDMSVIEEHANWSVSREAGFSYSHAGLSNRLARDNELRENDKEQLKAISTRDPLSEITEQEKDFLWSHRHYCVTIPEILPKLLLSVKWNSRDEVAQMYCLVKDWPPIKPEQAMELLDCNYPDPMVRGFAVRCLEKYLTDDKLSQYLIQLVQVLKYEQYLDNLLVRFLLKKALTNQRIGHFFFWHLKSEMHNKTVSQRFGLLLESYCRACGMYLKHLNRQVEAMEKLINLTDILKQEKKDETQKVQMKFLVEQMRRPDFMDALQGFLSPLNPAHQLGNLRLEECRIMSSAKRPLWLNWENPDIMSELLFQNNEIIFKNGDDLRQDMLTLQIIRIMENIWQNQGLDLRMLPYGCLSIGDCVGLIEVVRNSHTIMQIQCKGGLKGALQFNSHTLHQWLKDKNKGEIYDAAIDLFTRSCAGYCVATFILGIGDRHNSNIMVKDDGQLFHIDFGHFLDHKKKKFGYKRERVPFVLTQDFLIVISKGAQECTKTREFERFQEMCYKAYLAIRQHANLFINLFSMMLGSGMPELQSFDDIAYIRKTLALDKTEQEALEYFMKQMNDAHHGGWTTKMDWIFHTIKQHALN
Sequence of PI3 Kinase α (P27986 whole entry partner): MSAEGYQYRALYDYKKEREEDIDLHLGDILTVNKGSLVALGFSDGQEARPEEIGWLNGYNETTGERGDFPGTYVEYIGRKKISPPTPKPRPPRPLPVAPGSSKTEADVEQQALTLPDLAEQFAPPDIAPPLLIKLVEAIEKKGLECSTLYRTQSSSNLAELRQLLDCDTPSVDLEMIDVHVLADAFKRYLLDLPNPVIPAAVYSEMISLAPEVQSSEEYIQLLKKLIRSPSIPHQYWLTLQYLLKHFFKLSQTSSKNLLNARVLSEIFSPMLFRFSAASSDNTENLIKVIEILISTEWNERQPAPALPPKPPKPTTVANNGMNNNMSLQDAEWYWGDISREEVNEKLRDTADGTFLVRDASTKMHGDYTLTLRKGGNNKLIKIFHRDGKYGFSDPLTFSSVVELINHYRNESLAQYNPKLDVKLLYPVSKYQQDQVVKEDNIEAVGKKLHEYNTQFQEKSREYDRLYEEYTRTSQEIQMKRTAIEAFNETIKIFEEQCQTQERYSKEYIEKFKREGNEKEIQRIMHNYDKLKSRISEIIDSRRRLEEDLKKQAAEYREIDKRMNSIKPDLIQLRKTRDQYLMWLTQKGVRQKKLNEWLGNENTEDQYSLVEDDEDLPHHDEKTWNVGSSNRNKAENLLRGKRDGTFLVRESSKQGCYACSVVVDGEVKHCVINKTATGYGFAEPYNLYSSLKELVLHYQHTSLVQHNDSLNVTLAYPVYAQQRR

As usually defined, the IC50 is the point on the concentration scale where inhibition reaches its midpoint. In the case of `CC(C)n1nnc2c(N3CCOCC3)nc(-c3ccc(NC(=O)Nc4ccc(C(N)=O)cc4)cc3)nc21` [Example 93, 4-{3-[4-(3-isopropyl-7-morpholin-4-yl-3H-[1,2,3]triazolo[4,5-d]pyrimidin-5-yl)-phenyl]-ureido}-benzamide], the IC50 in experiment [1] was 18 nM; in experiment [2] it was 2.5 nM.

Consider `CNC(=O)Nc1ccc(-c2nc(N3CCOCC3)c3nnn(C(C)C)c3n2)cc1` [Example 91, 1-[4-(3-isopropyl-7-morpholin-4-yl-3H-[1,2,3]triazolo[4,5-d]pyrimidin-5-yl)-phenyl]-3-methyl-urea], for which the IC50 is 409 nM in experiment [1] and 41.5 nM in experiment [2].

Consider `O=C(c1ccc(Cn2nnc3c(N4CCOCC4)nc(-c4cccc(O)c4)nc32)cc1)N1CCN(c2ccccc2)CC1` [Example 229, 3-(7-morpholin-4-yl-3-{4-[(4-phenylpiperazin-1-yl)carbonyl]benzyl}-3H-[1,2,3]triazolo[4,5-d]pyrimidin-5-yl)phenol], for which the values for the IC50 in experiment [1] and in experiment [2] were 10200 nM and 286 nM, respectively.

As for `COC(Cn1nnc2c(N3CCOCC3)nc(-c3ccc(NC(=O)Nc4cccnc4)cc3)nc21)OC` [Example 181, 1-{4-[3-(2,2-dimethoxyethyl)-7-morpholin-4-yl-3H-[1,2,3]triazolo[4,5-d]pyrimidin-5-yl]phenyl}-3-pyridin-3-ylurea], the IC50 worked out at 186 nM in experiment [1] and 58.5 nM in experiment [2].

For `O=C(Nc1ccc(Cn2nnc3c(N4CCOCC4)nc(-c4cccc(O)c4)nc32)cc1)c1ccc(Cl)cc1` [Example 197, 4-Chloro-N-(4-{[5-(3-hydroxyphenyl)-7-morpholin-4-yl-3H-[1,2,3]triazolo[4,5-d]pyrimidin-3-yl]methyl}phenyl)benzamide], the half-inhibitory concentration (IC50) was 220 nM in experiment [1] and 66 nM in experiment [2].

In the case of `CCC(=O)N1CCN(CCn2nnc3c(N4CCOCC4)nc(-c4cccc(O)c4)nc32)CC1` [Example 100, 3-{7-morpholin-4-yl-3-[2-(4-propionylpiperazin-1-yl)ethyl]-3H-[1,2,3]triazolo[4,5-d]pyrimidin-5-yl}phenol], the IC50 in experiment [1] was 3140 nM; in experiment [2] it was 1660 nM.

For `CN(C)CCCOc1ccc(CN2CC(Cn3nnc4c(N5CCOCC5)nc(-c5ccc(NC(=O)Nc6ccccc6)cc5)nc43)C2)cc1` [Example 194, 1-(4-{3-[(1-{4-[3-(Dimethylamino)propoxy]benzyl}azetidin-3-yl)methyl]-7-morpholin-4-yl-3H-[1,2,3]triazolo[4,5-d]pyrimidin-5-yl}phenyl)-3-phenylurea], the IC50 in experiment [1] stood at 210 nM; in experiment [2], 31 nM.

Take `CCn1nnc2c(N3CCOCC3)nc(-c3ccc(NC(=O)NC4CCN(C(=O)OCc5ccccc5)CC4)cc3)nc21` [Example 65, benzyl 4-({[4-(3-ethyl-7-morpholin-4-yl-3H-[1,2,3]triazolo[4,5-d]pyrimidin-5-yl)phenyl]carbamoyl}amino)piperidine-1-carboxylate]: the IC50 is 1800 nM in experiment [1] and 5630 nM in experiment [2].

As to `CNC(=O)Cn1nnc2c(N3CCOCC3)nc(-c3cccc(CO)c3)nc21` [Example 236, 2-{5-[3-(hydroxymethyl)phenyl]-7-morpholin-4-yl-3H-[1,2,3]triazolo[4,5-d]pyrimidin-3-yl}-N-methylacetamide], the values for the IC50 in experiment [1] and in experiment [2] were 1880 nM and 560 nM, respectively.

As for `O=C(Nc1ccncc1)Nc1ccc(-c2nc(N3CCOCC3)c3nnn(C4CCOCC4)c3n2)cc1` [Example 198, 1-{4-[7-morpholin-4-yl-3-(tetrahydro-2H-pyran-4-yl)-3H-[1,2,3]triazolo[4,5-d]pyrimidin-5-yl]phenyl}-3-pyridin-4-ylurea], the IC50 in experiment [1] came out at 43 nM; in experiment [2] it was 10 nM.

For the molecule `CCCCN1CCC(n2nnc3c(N4CCOCC4)nc(-c4cncc(O)c4)nc32)CC1` [Example 27, 5-[3-(1-butylpiperidin-4-yl)-7-morpholin-4-yl-3H-[1,2,3]triazolo[4,5-d]pyrimidin-5-yl]pyridin-3-ol], the IC50 in experiment [1] stood at 2530 nM; in experiment [2] it was 385 nM.

In the case of `COC(=O)c1ccc(Cn2nnc3c(N4CCOCC4)nc(-c4cc(O)cc(F)c4)nc32)cc1` [Example 244, methyl 4-{[5-(3-fluoro-5-hydroxyphenyl)-7-morpholin-4-yl-3H-[1,2,3]triazolo[4,5-d]pyrimidin-3-yl]methyl}benzoate], the IC50 worked out at 1610 nM in experiment [1] and 1510 nM in experiment [2].

As to `CN(C)CCNC(=O)Nc1ccc(-c2nc(N3CCOCC3)c3nnn(C4CCN(Cc5ccc(Cl)cc5F)CC4)c3n2)cc1` [Example 156, 1-(4-(3-(1-(4-chloro-2-fluorobenzyl)piperidin-4-yl)-7-morpholino-3H-[1,2,3]triazolo[4,5-d]pyrimidin-5-yl)phenyl)-3-(2-(dimethylamino)ethyl)urea], the IC50 was determined as 557 nM in experiment [1] and 170 nM in experiment [2].

Regarding `CN(C)CCNC(=O)c1cccc(-n2nnc3c(N4CCOCC4)nc(-c4cccc(O)c4)nc32)c1` [Example 122, N-[2-(dimethylamino)ethyl]-3-[5-(3-hydroxyphenyl)-7-morpholin-4-yl-3H-[1,2,3]triazolo[4,5-d]pyrimidin-3-yl]benzamide], the IC50 in experiment [1] amounted to 260 nM; in experiment [2] it was 56.5 nM.

`O=C(NCCN1CCCC1)c1ccc(Cn2nnc3c(N4CCOCC4)nc(-c4cccc(O)c4)nc32)cc1` [Example 213, 4-{[5-(3-hydroxyphenyl)-7-morpholin-4-yl-3H-[1,2,3]triazolo[4,5-d]pyrimidin-3-yl]methyl}-N-(2-pyrrolidin-1-ylethyl)benzamide]: the IC50 in experiment [1] was determined as 1380 nM; in experiment [2], 282 nM.

For `NC(=O)Cn1nnc2c(N3CCOCC3)nc(-c3cccc(CO)c3)nc21` [Example 237, 2-{5-[3-(hydroxymethyl)phenyl]-7-morpholin-4-yl-3H-[1,2,3]triazolo[4,5-d]pyrimidin-3-yl}acetamide], the IC50 in experiment [1] was 2590 nM; in experiment [2], 460 nM.

As to `CCn1nnc2c(N3CCOCC3)nc(-c3ccc(NC(=O)Nc4ccc(C(=O)NCCN5CCCCC5)cc4)cc3)nc21` [Example 56, 4-({[4-(3-ethyl-7-morpholin-4-yl-3H-[1,2,3]triazolo[4,5-d]pyrimidin-5-yl)phenyl]carbamoyl}amino)-N-(2-piperidin-1-ylethyl)benzamide], the IC50 was found to be 11 nM in experiment [1] and 1.7 nM in experiment [2].

Consider `O=C(Nc1ccccc1)Nc1ccc(-c2nc(N3CCOCC3)c3nnn(CC4CN(Cc5ccc(-c6ccncc6)cc5)C4)c3n2)cc1` [Example 193, 1-[4-(7-Morpholin-4-yl-3-{[1-(4-pyridin-4-ylbenzyl)azetidin-3-yl]methyl}-3H-[1,2,3]triazolo[4,5-d]pyrimidin-5-yl)phenyl]-3-phenylurea], for which the IC50 came to 408 nM in experiment [1] and 68 nM in experiment [2].

Regarding `CN(CCNC(=O)Nc1ccc(-c2nc(N3CCOCC3)c3nnn(CC(F)(F)F)c3n2)cc1)C(=O)OC(C)(C)C` [Example 139, tert-butyl methyl{2-[({4-[7-morpholin-4-yl-3-(2,2,2-trifluoroethyl)-3H-[1,2,3]triazolo[4,5-d]pyrimidin-5-yl]phenyl}carbamoyl)amino]ethyl}carbamate], the IC50 in experiment [1] amounted to 1500 nM; in experiment [2], 318 nM.

With `O=C(Nc1ccc(-c2nc(N3CCOCC3)c3nnn(CCO)c3n2)cc1)Nc1cccnc1` [Example 184, 1-{4-[3-(2-hydroxyethyl)-7-morpholin-4-yl-3H-[1,2,3]triazolo[4,5-d]pyrimidin-5-yl]phenyl}-3-pyridin-3-ylurea], the IC50 in experiment [1] turned out to be 47 nM; in experiment [2], 20 nM.

In the case of `COC(=O)c1cccc(-n2nnc3c(N4CCOCC4)nc(-c4cccc(O)c4)nc32)c1` [Example 115, methyl 3-[5-(3-hydroxyphenyl)-7-morpholin-4-yl-3H-[1,2,3]triazolo[4,5-d]pyrimidin-3-yl]benzoate], the results for the IC50 in experiment [1] and in experiment [2] were 3630 nM and 240 nM, respectively.

On to `Oc1cccc(-c2nc(N3CCOCC3)c3nnn(CCN4CCN(Cc5ccco5)CC4)c3n2)c1` [Example 113, 3-(3-{2-[4-(2-furylmethyl)piperazin-1-yl]ethyl}-7-morpholin-4-yl-3H-[1,2,3]triazolo[4,5-d]pyrimidin-5-yl)phenol], for which the IC50 in experiment [1] is 3350 nM; in experiment [2], 726 nM.

Turning to `CCn1nnc2c(N3CCOC[C@@H]3C)nc(-c3ccc(NC(=O)Nc4ccc(N5CCN(C)CC5)cc4)cc3)nc21` [Example 76, (S)-1-(4-(3-ethyl-7-(3-methylmorpholino)-3H-[1,2,3]triazolo[4,5-d]pyrimidin-5-yl)phenyl)-3-(4-(4-methylpiperazin-1-yl)phenyl)urea], the IC50 in experiment [1] was determined as 32 nM; in experiment [2] it was 5 nM.

As to `CCCCNC(=O)c1ccc(NC(=O)Nc2ccc(-c3nc(N4CCOCC4)c4nnn(CC)c4n3)cc2)cc1` [Example 62, N-butyl-4-({[4-(3-ethyl-7-morpholin-4-yl-3H-[1,2,3]triazolo[4,5-d]pyrimidin-5-yl)phenyl]carbamoyl}amino)benzamide], the IC50 was found to be 33 nM in experiment [1] and 6 nM in experiment [2].

Turning to `CN(C)CCNC(=O)Nc1ccc(-c2nc(N3CCOCC3)c3nnn(C4CCN(Cc5ccc(Br)nc5)CC4)c3n2)cc1` [Example 155, 1-(4-(3-(1-((6-bromopyridin-3-yl)methyl)piperidin-4-yl)-7-morpholino-3H-[1,2,3]triazolo[4,5-d]pyrimidin-5-yl)phenyl)-3-(2-(dimethylamino)ethyl)urea], the IC50 in experiment [1] was 176 nM; in experiment [2], 48 nM.

Consider `CCn1nnc2c(N3CCOCC3)nc(-c3ccc(NC(=O)Nc4ccc(C(N)=O)cc4)cc3)nc21` [Example 60, 4-({[4-(3-ethyl-7-morpholin-4-yl-3H-[1,2,3]triazolo[4,5-d]pyrimidin-5-yl)phenyl]carbamoyl}amino)benzamide], for which the results for the IC50 in experiment [1] and in experiment [2] were 16.5 nM and less than 2.6 nM, respectively.

With `CC(C)(C)OC(=O)Cn1nnc2c(N3CCOCC3)nc(-c3cccc(CO)c3)nc21` [Example 232, tert-butyl {5-[3-(hydroxymethyl)phenyl]-7-morpholin-4-yl-3H-[1,2,3]triazolo[4,5-d]pyrimidin-3-yl}acetate], the 50% inhibitory concentration (IC50) worked out at 1950 nM in experiment [1] and 370 nM in experiment [2].
